Measured values: patent publication US20160159814A1, “GLYCINE TRANSPORTER INHIBITOR” (TAISHO PHARMACEUTICAL CO., LTD., priority 2013, published 2016)

What follows are compounds tested against T1, human type 1 glycine transporter (GlyT1) (Homo sapiens, UniProt P48067) (assay: Glycine uptake inhibition experiment ([3H] glycine uptake in T98G cells expressing GlyT1)). Conditions: not given.
T1 construct: T98G cells (glioma cells) expressing human type 1 glycine transporter (GlyT1) were used; endogenous in cells; host or cells: T98G cells (human glioma cells)
T1 sequence (P48067 1-706): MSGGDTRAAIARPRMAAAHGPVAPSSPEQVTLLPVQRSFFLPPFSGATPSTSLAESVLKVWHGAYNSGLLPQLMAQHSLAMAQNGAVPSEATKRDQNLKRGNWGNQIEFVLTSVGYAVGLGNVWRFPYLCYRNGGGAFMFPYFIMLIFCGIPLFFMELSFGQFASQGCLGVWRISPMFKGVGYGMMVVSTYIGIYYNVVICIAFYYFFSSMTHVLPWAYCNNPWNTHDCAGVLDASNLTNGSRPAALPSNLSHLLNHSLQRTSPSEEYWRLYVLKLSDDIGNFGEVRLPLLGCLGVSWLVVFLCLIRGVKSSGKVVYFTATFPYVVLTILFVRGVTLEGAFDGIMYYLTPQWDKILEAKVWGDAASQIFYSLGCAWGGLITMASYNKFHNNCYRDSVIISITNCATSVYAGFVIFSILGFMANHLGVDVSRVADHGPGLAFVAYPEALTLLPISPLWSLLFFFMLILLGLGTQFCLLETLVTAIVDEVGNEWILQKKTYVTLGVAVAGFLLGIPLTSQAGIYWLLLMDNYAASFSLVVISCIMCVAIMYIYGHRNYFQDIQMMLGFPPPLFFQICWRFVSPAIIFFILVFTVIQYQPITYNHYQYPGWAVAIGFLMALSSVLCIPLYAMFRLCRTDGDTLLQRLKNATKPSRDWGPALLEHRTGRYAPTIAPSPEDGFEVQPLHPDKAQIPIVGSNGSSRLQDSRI
Type: cell-based
In short: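 T98G glioma cells expressing human GlyT1 were pretreated 10 min with compound in HEPES buffer pH 7.4 (0.2% BSA), then incubated with compound plus 250 nM final [3H]glycine for 15 min at room temperature. Intracellular radioactivity was counted after NaOH lysis; 10 μM ALX5407 defined non-specific uptake. IC50 came from 10^−9–10^−5 M curves.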
`C[C@H](O)c1cccc2c1C(F)(F)C(=O)N2Cc1ccc(Cl)nc1Cl` [Compound 224, 1-[(2,6-dichloropyridin-3-yl)methyl]-3,3-difluoro-4-[(1S)-1-hydroxyethyl]-1,3-dihydro-2H-indol-2-one] showed an IC50 of 740 nM. With `C[C@H](O)c1cccc2c1C(F)(F)C(=O)N2Cc1ccc(-n2cncn2)nc1` [Compound 193, 3,3-difluoro-4-[(1S)-1-hydroxyethyl]-1-{[6-(1H-1,2,4-biazol-1-yl)pyridin-3-yl]methyl}-1,3-dihydro-2H-indol-2-one] the IC50 was 1400 nM. `C[C@H](O)c1cccc2c1C(F)(F)C(=O)N2Cc1ncc(Cl)cc1C#N` [Compound 242] showed an IC50 of 83 nM. With `C[C@H](O)c1cccc2c1C(F)(F)C(=O)N2Cc1cccnc1Cl` [Compound 210, 1-[(2-chloropyridin-3-yl)methyl]-3,3-difluoro-4-[(1S)-1-hydroxyethyl]-1,3-dihydro-2H-indol-2-one] the IC50 was 680 nM. `CCOc1ccc(CN2C(=O)C(F)(F)c3c([C@H](C)O)cccc32)cn1` [Compound 241, 1-[(6-ethoxypyridin-3-yl)methyl]-3,3-difluoro-4-[(1S)-1-hydroxyethyl]-1,3-dihydro-2H-indol-2-one] gave an IC50 of 66 nM. Compound `C[C@H](O)c1cccc2c1C(F)(F)C(=O)N2Cc1cnc(Cl)cc1Cl` [Compound 223, 1-[(4,6-dichloropyridin-3-yl)methyl]-3,3-difluoro-4-[(1S)-1-hydroxyethyl]-1,3-dihydro-2H-indol-2-one] has an IC50 of 66 nM. `C[C@H](O)c1cccc2c1C(F)(F)C(=O)N2Cc1ccc(OC(F)F)nc1` [Compound 215, 1-{[6 (difluoromethoxy)pyridin-3-yl]methyl}-3,3-difluoro-4-[(1S)-1-hydroxyethyl]-1,3-dihydro-2H-indol-2-one] showed an IC50 of 240 nM. Work on `[2H]C([2H])(c1cccc(Cl)n1)N1C(=O)C(F)(F)c2c([C@H](C)O)cccc21` [Compound 205, 1-[(6-chloropyridin-2-yl)(2H2)methyl]-3,3-difluoro-4-[(1S)-1-hydroxyethyl]-1,3-dihydro-2H-indol-2-one] yielded an IC50 of 5.6 nM. Work on `C[C@H](O)c1cccc2c1C(F)(F)C(=O)N2Cc1ccc(C(F)(F)F)c(Cl)n1` [Compound 238, 1-{[6-chloro-5-(trifluoromethyl)pyridin-2-yl]methyl}-3,3-difluoro-4-[(1S)-1-hydroxyethyl]-1,3-dihydro-2H-indol-2-one] yielded an IC50 of 6.2 nM. For `C[C@H](O)c1cccc2c1C(F)(F)C(=O)N2Cc1ccnc(C2CC2)c1` [Compound 175, 1-[(2-cyclopropylpyridin-4-yl)methyl]-3,3-difluoro-4-[(1S)-1-hydroxyethyl]-1,3-dihydro-2H-indol-2-one], the IC50 was 23 nM. `C[C@H](O)c1cccc2c1C(F)(F)C(=O)N2Cc1ccc(F)c(Br)n1` [Compound 229, 1-[(6-bromo-5-fluoropyridin-2-yl)methyl]-3,3-difluoro-4-[(1S)-1-hydroxyethyl)-1,3-dihydro-2H-indol-2-one] was tested, and the IC50 was 1.7 nM. `COc1nc(C(F)(F)F)ccc1CN1C(=O)C(F)(F)c2c([C@H](C)O)cccc21` [Compound 243, 3,3-difluoro-4-[(1S)-1-hydroxyethyl]-1-({2-methoxy-6-(trifluoromethyl)pyridin-3-yl]methyl}-1,3-dihydro-2H-indol-2-one] showed an IC50 of 57 nM. Work on `C[C@H](O)c1cccc2c1C(F)(F)C(=O)N2Cc1ncccc1Br` [Compound 211, 1-[(3-bromopyridin-2-yl)methyl]-3,3-difluoro-4-[(1S)-1-hydroxyethyl]-1,3-dihydro-2H-indol-2-one] yielded an IC50 of 85 nM.

Same assay, conditions: glycine uptake inhibition
Compound `C[C@H](O)c1cccc2c1C(F)(F)C(=O)N2Cc1cc2ccccc2c(=O)n1C` [Compound 100, 3-({3,3-difluoro-4-[(1S)-1-hydroxyethyl]-2-oxo-2,3-dihydro-1H-indol-1-yl}methyl)-2-methylisoquinolin-1(2H)-one] has an IC50 of 29 nM. For `C[C@H](O)c1cccc2c1C(F)(F)C(=O)N2Cc1ccc(F)cn1` [Compound 114, 3,3-difluoro-1-[(5-fluoropyridin-2-yl)methyl]-4-[(1S)-1-hydroxyethyl]-1,3-dihydro-2H-indol-2-one], the IC50 was 61 nM. `O=C1N(Cc2cccc(Cl)n2)c2cccc(C3(O)CCC3)c2C1(F)F` [Compound 24, 1-[(6-chloropyridin-2-yl)methyl]-3,3-difluoro-4-(1-hydroxycyclobutyl)-1,3-dihydro-2H-indol-2-one] was tested, and the IC50 was 5900 nM. `COc1cncc(CN2C(=O)C(F)(F)c3c([C@H](C)O)cccc32)c1` [Compound 71, 3,3-difluoro-4-[(1S)-1-hydroxyethyl]-1-[(5-methoxypyridin-3-yl)methyl]-1,3-dihydro-2H-indol-2-one] was tested, and the IC50 was 160 nM. With `C[C@H](O)c1cccc2c1C(F)(F)C(=O)N2Cc1cccc(C(F)(F)F)c1` [Compound 58, 3,3-difluoro-4-[(1S)-1-hydroxyethyl]-1-[3-(trifluoromethyl)benzyl]-1,3-dihydro-2H-indol-2-one] the IC50 was 6.6 nM. For `C[C@H](O)c1cccc2c1C(F)(F)C(=O)N2Cc1n[nH]c2ccccc12` [Compound 89, 3,3-difluoro-4-[(1S)-1-hydroxyethyl]-1-(1H-indazol-3-ylmethyl)-1,3-dihydro-2H-indol-2-one], the IC50 was 190 nM. For `C[C@H](O)c1cccc2c1C(F)(F)C(=O)N2Cc1cc2ccccc2c(=O)[nH]1` [Compound 99, 3-({3,3-difluoro-4-[(1S)-1-hydroxyethyl]-2-oxo-2,3-dihydro-1H-indol-1-yl}methyl) isoquinolin-1(2H)-one], the IC50 was 48 nM. For `O=C1N(Cc2cc(F)ccn2)c2cccc(C(O)C(F)F)c2C1(F)F` (single isomer, unassigned) [Compound 154, 4-(2,2-difluoro-1-hydroxyethyl)-3,3-difluoro-1-[(4-fluoropyridin-2-yl)methyl]-1,3-dihydro-2H-indol-2-one], the IC50 was 260 nM. In the case of `O=C1N(Cc2ccc(F)nc2)c2cccc(C(O)C(F)F)c2C1(F)F` (single isomer, unassigned) [Compound 156, 4-(2,2-difluoro-1-hydroxyethyl)-3,3-difluoro-1-[(6-fluoropyridin-3-yl)methyl]-1,3-dihydro-2H-indol-2-one], the IC50 is reported as 110 nM. `C[C@H](O)c1cccc2c1C(F)(F)C(=O)N2Cc1cc(Br)ccn1` [Compound 123, 1-[(4-bromopyridin-2-yl)methyl]-3,3-difluoro-4-[(1S)-1-hydroxyethyl]-1,3-dihydro-2H-indol-2-one] was tested, and the IC50 was 22 nM. `C[C@H](O)c1cccc2c1C(F)(F)C(=O)N2Cc1ccnc(-n2cncn2)c1` [Compound 69, 3,3-difluoro-4-[(1S)-1-hydroxyethyl]-1-{[2-(1H-1,2,4-triazol-1-yl)pyridin-4-yl]methyl}-1,3-dihydro-2H-indol-2-one] was tested, and the IC50 was 45 nM. Compound `COc1cccc(CN2C(=O)C(F)(F)c3c([C@H](C)O)cccc32)c1` [Compound 59, 3,3-difluoro-4-[(1S)-1-hydroxyethyl]-1-(3-methoxybenzyl)-1,3-dihydro-2H-indol-2-one] has an IC50 of 18 nM. `O=C1N(Cc2cncc(Cl)c2)c2ccc(F)c(C(O)C(F)(F)F)c2C1(F)F` (single isomer, unassigned) [Compound 49, 1-[(5-chloropyridin-3-yl)methyl]-3,3,5-trifluoro-4-(2,2,2-trifluoro-1-hydroxyethyl)-1,3-dihydro-2H-indol-2-one] was tested, and the IC50 was 1500 nM.

Same assay, conditions: table section whose head prints (μm)
Work on `O=C1N(Cc2cnccc2Cl)c2cccc(C(O)C(F)F)c2C1(F)F` (single isomer, unassigned) [Compound 260, 1-[(4-chloropyridin-3-yl)mettiyl]-4-(2,2-difluoro-1-hydroxyethyl)-3,3-difluoro-1,3-dihydro-2H-indol-2-one] yielded an IC50 of 1500 nM. For `N#Cc1cc(CN2C(=O)C(F)(F)c3c(C(O)C(F)F)cccc32)cc(Cl)n1` (single isomer, unassigned) [Compound 264, 6-chloro-4-{[4-(2,2-difluoro-1-hydroxyethyl)-3,3-difluoro-2-oxo-2,3-dihydro-1H-indol-1-yl]methyl}pyridine-2-carbonitrile], the IC50 was 170 nM. With `O=C1N(Cc2cc(C(F)(F)F)c(Cl)cn2)c2cccc(C(O)C(F)F)c2C1(F)F` (single isomer, unassigned) [Compound 268, 1-{[5-chloro-4-(trifluoromethyl)pyridin-2-yl]methyl)-4-(2,2-difluoro-1-hydroxyethyl)-3,3-difluoro-1,3-dihydro-2H-indol-2-one] the IC50 was 16 nM. For `COc1cc(CN2C(=O)C(F)(F)c3c([C@H](C)O)cccc32)ncc1F` [Compound 261, 3,3-difluoro-1-[(5-fluoro-4-methoxypyridin-2-yl)methyl)-[(1S)-1-hydroxyethyl]-1,3-dihydro-2H-indol-2-one], the IC50 was 250 nM. For `N#Cc1nc(CN2C(=O)C(F)(F)c3c(C(O)C(F)F)cccc32)ccc1Cl` (single isomer, unassigned) [Compound 271, 3-chloro-6-{[4-(2,2-difluoro-1-hydroxyethyl)-3,3-difluoro-2-oxo-2,3-dihydro-1H-indol-1-yl]methyl}pyridine-2-carbonitrile], the IC50 was 5.5 nM.
